Experimental data published in the supplement of paper PMC13380429.

Columns and labels:
Conditions in all cases: 72 h
Calu-3 [1] = experiment: relative viability EC50 (midpoint between 100% and the lowest measured viability); higher = less toxic
HepG2 [2] = experiment: as above
Caco-2 [3] = experiment: as above
Vero E6 [4] = experiment: as above
U2OS [5] = experiment: as above
Calu-3 [6] = experiment: drug sensitivity score (DSS) for viability; higher = more toxic; extreme values may be limits of the assay
HepG2 [7] = experiment: as above
Caco-2 [8] = experiment: as above
Vero E6 [9] = experiment: as above
U2OS [10] = experiment: as above
Calu-3 [11] = experiment: cell viability relative to DMSO; higher = less toxic
HepG2 [12] = experiment: as above
Caco-2 [13] = experiment: as above
Vero E6 [14] = experiment: as above
U2OS [15] = experiment: as above

SMILES | relative viability EC50 (Calu-3 [1]) [µM] | relative viability EC50 (HepG2 [2]) [µM] | relative viability EC50 (Caco-2 [3]) [µM] | relative viability EC50 (Vero E6 [4]) [µM] | relative viability EC50 (U2OS [5]) [µM] | drug sensitivity score (Calu-3 [6]) | drug sensitivity score (HepG2 [7]) | drug sensitivity score (Caco-2 [8]) | drug sensitivity score (Vero E6 [9]) | drug sensitivity score (U2OS [10]) | cell viability (Calu-3 [11]; 1 nM) [%] | cell viability (Calu-3 [11]; 10 nM) [%] | cell viability (Calu-3 [11]; 100 nM) [%] | cell viability (Calu-3 [11]; 1000 nM) [%] | cell viability (Calu-3 [11]; 10000 nM) [%] | cell viability (HepG2 [12]; 1 nM) [%] | cell viability (HepG2 [12]; 10 nM) [%] | cell viability (HepG2 [12]; 100 nM) [%] | cell viability (HepG2 [12]; 1000 nM) [%] | cell viability (HepG2 [12]; 10000 nM) [%] | cell viability (Caco-2 [13]; 1 nM) [%] | cell viability (Caco-2 [13]; 10 nM) [%] | cell viability (Caco-2 [13]; 100 nM) [%] | cell viability (Caco-2 [13]; 1000 nM) [%] | cell viability (Caco-2 [13]; 10000 nM) [%] | cell viability (Vero E6 [14]; 1 nM) [%] | cell viability (Vero E6 [14]; 10 nM) [%] | cell viability (Vero E6 [14]; 100 nM) [%] | cell viability (Vero E6 [14]; 1000 nM) [%] | cell viability (Vero E6 [14]; 10000 nM) [%] | cell viability (U2OS [15]; 1 nM) [%] | cell viability (U2OS [15]; 10 nM) [%] | cell viability (U2OS [15]; 100 nM) [%] | cell viability (U2OS [15]; 1000 nM) [%] | cell viability (U2OS [15]; 10000 nM) [%]
N[C@@H](Cc1c[nH]c2ccccc12)C(=O)O [tryptophan] | > 10 | > 10 | > 10 | > 10 | > 10 | 0 | 0 | 0 | 0 | 0 | 106 | 97.1 | 107 | 107 | 103 | 88.3 | 95.1 | 103 | 88.9 | 100 | 105 | 96.6 | 85.7 | 110 | 97.5 | 99.7 | 108 | 94.4 | 91.3 | 99.8 | 97.2 | 101 | 101 | 99.1 | 98.1
O=C(N[C@H]1CCN(C(=O)c2cc(C(F)(F)F)cc(C(F)(F)F)c2)[C@H](Cc2ccc(Cl)cc2)C1)c1ccnc2ccccc12 [AV-608] | > 10 | > 10 | > 10 | > 10 | > 10 | 0 | 0 | 1.3 | 0 | 0 | 115 | 98.6 | 101 | 94.2 | 99.4 | 96.2 | 103 | 98.9 | 98.3 | 97.3 | 89.3 | 95 | 96.1 | 97.4 | 75.5 | 96 | 100 | 101 | 97.5 | 95.7 | 101 | 98.8 | 93.5 | 100 | 95.5
COc1ncc(-c2ccc3c(Nc4cc(Oc5cc(F)cc(F)c5)cc(C(=O)O)c4)c(S(=O)(=O)NC4CC4)cnc3c2)c(OC)n1 | > 10 | > 10 | > 10 | > 10 | > 10 | 0 | 0.2 | 0 | 0 | 0 | 95.3 | 107 | 87.9 | 96.3 | 102 | 97 | 107 | 96.8 | 101 | 85.6 | 103 | 100 | 85 | 92.2 | 97.5 | 101 | 101 | 99.9 | 104 | 101 | 104 | 104 | 98.8 | 93.2 | 99.8
O=C(N[C@@H](Cc1c[nH]c2ccccc12)C(=O)O)c1ccc(Cl)cc1 [benzotript] | > 10 | > 10 | > 10 | > 10 | > 10 | 0 | 0 | 0 | 0 | 0 | 87.8 | 99.4 | 98 | 100 | 108 | 99.7 | 98.1 | 102 | 103 | 108 | 99.9 | 102 | 101 | 100 | 99.4 | 104 | 99.3 | 98.1 | 102 | 107 | 96 | 99.5 | 94.3 | 101 | 95.9
CCN1CCN(Cc2ccc(-c3cc4c(N[C@H](C)c5ccccc5)ncnc4[nH]3)cc2)CC1 [AEE788] | 0.548 | > 10 | > 10 | 0.435 | 1.58 | 13.7 | 0.2 | 2.4 | 10.9 | 5.1 | 100 | 103 | 84.9 | 38.1 | 3.7 | 109 | 95.4 | 98.1 | 110 | 82.5 | 89.5 | 91.9 | 94.8 | 81.9 | 78 | 97.6 | 94.7 | 82.2 | 54.4 | 27.1 | 98.7 | 95.7 | 97.8 | 86.7 | 44.7
CC(C)(C)C(=O)NCCCC(=O)O [pivagabine] | > 10 | > 10 | > 10 | > 10 | > 10 | 0 | 0 | 0 | 0 | 0 | 101 | 110 | 98.3 | 99.1 | 106 | 99 | 111 | 98.5 | 106 | 108 | 92.3 | 97.2 | 88.8 | 95.9 | 92.2 | 95.1 | 99.2 | 96.4 | 98.3 | 91.7 | 101 | 105 | 98.4 | 101 | 102
O=C1CCC(N2C(=O)c3ccccc3C2=O)C(=O)N1 (stereo not given) [thalidomide] | > 10 | > 10 | > 10 | > 10 | > 10 | 0 | 0 | 0 | 0 | 0 | 89.8 | 92.1 | 92.2 | 93.6 | 97.9 | 102 | 99.8 | 89.4 | 99.1 | 97.8 | 89.6 | 91.9 | 90.9 | 94.7 | 94.9 | 103 | 102 | 93.9 | 97.3 | 96.1 | 101 | 95.4 | 100 | 95 | 98.6
